Test: Inhibition of mouse KLK5 assessed as inhibition constant using Boc-VPR-AMC as fluorogenic substrate incubated for 30 mins by fluorescence plate reader assay

Ki: 1.4 nM
Structure (SMILES): CCCCCCCCCCCCCCCC(=O)NCCCC[C@H](NC(=O)[C@H](CCC(=O)O)NC(=O)[C@H](Cc1ccc(O)cc1)NC(=O)[C@H](CCC(=O)O)NC(=O)COCCOCCNC(=O)c1ccc(-c2c3ccc(=O)cc-3oc3cc(O)ccc23)c(C(=O)O)c1)C(=O)N[C@@H](CCC(=O)O)C(=O)N[C@@H](Cc1ccc(O)cc1)C(=O)N[C@@H](CCC(=O)O)C(=O)NCCOCCOCC(=O)NCCCC[C@H](NC(=O)CNC(=O)[C@@H]1CSCC(=O)CSC[C@H](NC(=O)CN)C(=O)N[C@@H]([C@@H](C)O)C(=O)N[C@@H](CCCNC(=N)N)C(=O)N[C@@H](CCC(N)=O)C(=O)N[C@@H](Cc2ccc(O)cc2)C(=O)N2CCC[C@H]2C(=O)N1)C(=O)NCC(N)=O
